Experimental data: patent publication US9650380B2, “Difluoromethylene compound” (SATO PHARMACEUTICAL CO., LTD., priority 2012, dated 2017)

biological target: T1, human URAT1 (Homo sapiens, UniProt Q96S37); assay: Test for uric acid transport inhibition using human URAT1 expression cells; type: cell-based; conditions: human URAT1 stable expression CHO cells; 14C-labeled uric acid 38 μM final; incorporation 5 minutes at room temperature; 100% window defined with benzbromarone 100 μM; read-out: URAT1 inhibitory activity (IC50)
T1 construct: Human URAT1 full-length cDNA was introduced to an expression vector pcDNA5/FRT/V5-His TOPO; expressed in transfected cells
T1 sequence (Q96S37 1-553): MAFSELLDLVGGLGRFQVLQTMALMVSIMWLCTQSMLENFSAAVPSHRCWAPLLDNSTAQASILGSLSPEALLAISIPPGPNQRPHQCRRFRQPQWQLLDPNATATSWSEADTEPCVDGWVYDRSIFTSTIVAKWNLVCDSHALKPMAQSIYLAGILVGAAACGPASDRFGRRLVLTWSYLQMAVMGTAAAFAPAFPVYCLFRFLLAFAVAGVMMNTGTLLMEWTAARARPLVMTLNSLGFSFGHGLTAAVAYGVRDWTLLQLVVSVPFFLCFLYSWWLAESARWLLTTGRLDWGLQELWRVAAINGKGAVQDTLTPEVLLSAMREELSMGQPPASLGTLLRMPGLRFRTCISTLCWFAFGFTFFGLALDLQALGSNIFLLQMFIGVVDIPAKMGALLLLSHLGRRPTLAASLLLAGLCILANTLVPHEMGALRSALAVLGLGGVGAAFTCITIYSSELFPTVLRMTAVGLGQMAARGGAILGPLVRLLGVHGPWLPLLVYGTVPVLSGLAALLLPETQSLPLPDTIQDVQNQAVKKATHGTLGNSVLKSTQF
Procedure: In this Example, it was evaluated whether the Example compound and the Reference example compound mentioned below has the URAT1 inhibitory activity.
Human URAT1 full-length cDNA was introduced to an expression vector pcDNA5/FRT/V5-His TOPO (registered trademark) (Invitrogen Corporation). The obtained expression plasmid was introduced to Chinese hamster ovary cell (hereinafter referred to as the CHO cell) by the liposome method using Lipofectamine LTX (Invitrogen) and cultured in a selection medium including hygromycin, whereby to prepare human URAT1 stable expression cell.
The human URAT1 expression CHO cell were cultured using D-MEM/F-12 (1:1) mixed medium including 10% bovine fatal serum and hygromycin at 37° C. in the presence of 5% CO2. The cells were seeded onto a 96-well plate (Corning Incorporated) at 0.8×10^5 cells/well, and after 24 hours, the test for uric acid transport inhibition below was performed.
The medium was removed by aspiration, and then the cells were washed once with an assay buffer including 125 mM of sodium gluconate, 4.8 mM of potassium gluconate, 1.2 mM of potassium dihydrogen phosphate, 1.2 mM of magnesium sulfate, 1.3 mM of calcium gluconate and 5.6 mM of glucose, 50 μL assay buffer including the test compound in various concentrations was added, and further 50 μL assay buffer including a radioactive ligand (uric acid labeled with ^14C; 38 μM final concentration) was added, and incorporation reaction was performed at room temperature for 5 minutes. Immediately after the completion of the reaction, the reaction mixture was washed twice with 100 μL ice-cold assay buffer, and 100 μL of 0.1N sodium hydroxide was added. The reaction mixture was stirred to lyse the cells, and 4 mL of Hionic-Fluor (Packard BioScience CO.) was added, and then the radioactivity was measured with a liquid scintillation counter (Beckman Coulter, Inc. and Packard BioScience CO).
The radioactivitiy when each concentration of the test compound was added (uric acid incorporation activity, %) was calculated in which the difference of the radioactivity when the test compound was not added (DMSO added) and the radioactivity when a positive control compound, benzbromarone (a known URAT1 inhibitor) was added in 100 μM, was taken as 100%, and the concentration of the test compound when the uric acid incorporation activity was inhibited to 50% (IC50) was obtained.

Going from `Cc1cccc(C#N)c1Cn1nc(C)c2ccc(C(F)(F)c3nnn[nH]3)nc21` [Example 109, 2-{6-[difluoro(1H-tetrazol-5-yl)methyl]-3-methyl-1H-pyrazolo[3,4-b]pyridin-1-ylmethyl}-3-methylbenzonitrile] to `Cc1cccc(C(N)=O)c1Cn1nc(C)c2ccc(C(F)(F)c3nnn[nH]3)nc21` [example 110, 2-{6-[difluoro(1H-tetrazol-5-yl)methyl]-3-methyl-1H-pyrazolo[3,4-b]pyridin-1-ylmethyl}-3-methylbenzamide], the IC50 rises from 13 nM to 44 nM (3.4-fold). The first is the more potent here.

`O=C(O)Cc1ccc2c(C(F)(F)F)nn(Cc3c(Cl)cccc3Cl)c2c1` [Reference Example 11, [1-(2,6-dichlorobenzyl)-3-trifluoromethyl-1H-indazol-6-yl]acetic acid, reference compound] and `O=C(O)Cc1ccc2c(Cl)nn(Cc3c(Cl)cccc3Cl)c2c1` [Reference Example 12, [3-chloro-1-(2,6-dichlorobenzyl)-1H-indazol-6-yl]acetic acid, reference compound] are within 1.5-fold of each other in IC50: 15 nM for the first, 16 nM for the second.

Going from `Cc1nn(Cc2cccc3ccncc23)c2cc(C(F)(F)c3nnn[nH]3)ccc12` [Example 94, 8-{6-[difluoro(1H-tetrazol-5-yl)methyl]-3-methyl-1H-indazol-1-ylmethyl}isoquinoline] to `Cc1nn(Cc2c(C#N)cccc2CO)c2cc(C(F)(F)c3nnn[nH]3)ccc12` [example 104], the IC50 falls from 125 nM to 30 nM (4.2-fold). The second is the more potent here.

First: Cc1cccc(C#N)c1Cn1nc(C)c2ccc(C(F)(F)c3nnn[nH]3)cc21 [Example 71, 2-{6-[difluoro(1H-tetrazol-5-yl)methyl]-3-methyl-1H-indazol-1-ylmethyl}-3-methylbenzonitrile]
Second: Cc1cccc(CC#N)c1Cn1nc(C)c2ccc(C(F)(F)c3nnn[nH]3)cc21 [Example 107, (2-{6-[difluoro(1H-tetrazol-5-yl)methyl]-3-methyl-1H-indazol-1-ylmethyl}-3-methylphenyl)acetonitrile]
The IC50 of the first is 2-fold lower: 6 nM for the first, 12 nM for the second.

First: Cc1cn(Cc2c(Cl)cccc2Cl)c2cc(C(F)(F)C(=O)O)ccc12 [Example 49, [1-(2,6-dichlorobenzyl)-3-methyl-1H-indol-6-yl]difluoroacetic acid]
Second: O=C(O)C(F)(F)c1ccc2c(Cl)nn(Cc3c(Cl)cccc3Cl)c2c1 [Example 34, [3-chloro-1-(2,6-dichlorobenzyl)-1H-indazol-6-yl]difluoroacetic acid]
The IC50 of the first is 2.5-fold higher: 38 nM for the first, 15 nM for the second. The second is the more potent here.

Compared with `Cc1nn(Cc2c(Cl)cccc2Cl)c2cc(C(O)c3nnn[nH]3)ccc12` (stereo not shown) [Reference Example 9, [1-(2,6-dichlorobenzyl)-3-methyl-1H-indazol-6-yl](1H-tetrazol-5-yl)methanol, reference compound], `Cc1nn(Cc2c(Cl)cccc2Cl)c2cc(C(F)(F)c3nnn[nH]3)ccc12` [Example 50, 1-(2,6-dichlorobenzyl)-6-[difluoro(1H-tetrazol-5-yl)methyl]-3-methyl-1H-indazole] is 11-fold lower in IC50: 78 nM for the first, 7 nM for the second.

First: Cc1nn(Cc2c(C#N)ccnc2Cl)c2cc(C(F)(F)c3nnn[nH]3)ccc12 [Example 92, 2-chloro-3-{6-[difluoro(1H-tetrazol-5-yl)methyl]-3-methyl-1H-indazol-1-ylmethyl}isonicotinonitrile]
Second: Cc1nn(Cc2ccc(C#N)cc2)c2cc(C(F)(F)c3nnn[nH]3)ccc12 [Example 88, 4-{6-[difluoro(1H-tetrazol-5-yl)methyl]-3-methyl-1H-indazol-1-ylmethyl}benzonitrile]
The IC50 of the first is 1.6-fold lower: 21 nM for the first, 34 nM for the second. The first is the more potent here.

`Cc1nn(Cc2c(C#N)cccc2C2CC2)c2cc(C(F)(F)C(=O)O)ccc12` [example 32, [1-(2-cyano-6-cyclopropylbenzyl)-3-methyl-1H-indazol-6-yl]difluoroacetic acid] and `Cc1cccc(C#N)c1Cn1nc(C)c2ccc(C(F)(F)C(=O)O)cc21` [example 24, [1-(2-cyano-6-methylbenzyl)-3-methyl-1H-indazol-6-yl]difluoroacetic acid] are within 1.5-fold of each other in IC50: 23 nM for the first, 26 nM for the second.

First: O=C(O)C(F)(F)c1ccc2c(C(F)(F)F)nn(Cc3c(Cl)cccc3Cl)c2c1 [Example 36, [1-(2,6-dichlorobenzyl)-3-trifluoromethyl-1H-indazol-6-yl]difluoroacetic acid]
Second: Cc1nn(Cc2c(F)cccc2Cl)c2cc(C(F)(F)C(=O)O)ccc12 [example 9, [1-(2-chloro-6-fluorobenzyl)-3-methyl-1H-indazol-6-yl]difluoroacetic acid]
The IC50 of the first is 2.7-fold higher: 107 nM for the first, 40 nM for the second.

Going from `Cc1nn(Cc2c(F)cccc2C(F)(F)F)c2cc(C(F)(F)C(=O)O)ccc12` [example 22, difluoro[1-(2-fluoro-6-trifluoromethylbenzyl)-3-methyl-1H-indazol-6-yl]acetic acid] to `Cc1cccc(Cl)c1Cn1nc(C)c2ccc(C(F)(F)C(=O)O)cc21` [Example 3, [1-(2-chloro-6-methylbenzyl)-3-methyl-1H-indazol-6-yl]difluoroacetic acid], the IC50 falls from 52 nM to 26 nM (2-fold). The second is the more potent here.

`Cc1nn(Cc2c(C#N)cccc2CO)c2cc(C(F)(F)C(=O)O)ccc12` [example 53, [1-(2-cyano-6-hydroxymethylbenzyl)-3-methyl-1H-indazol-6-yl]difluoroacetic acid] and `Cc1cccc(C#N)c1Cn1nc(CO)c2ccc(C(F)(F)C(=O)O)cc21` [example 121, [1-(2-cyano-6-methylbenzyl)-3-hydroxymethyl-1H-indazol-6-yl]difluoroacetic acid] are within 1.5-fold of each other in IC50: 390 nM for the first, 268 nM for the second.

`Cc1nn(Cc2c(C(N)=O)cccc2C2CC2)c2nc(C(F)(F)c3nnn[nH]3)ccc12` [example 116, 3-cyclopropyl-2-{6-[difluoro(1H-tetrazol-5-yl)methyl]-3-methyl-1H-pyrazolo[3,4-b]pyridin-1-ylmethyl}benzamide] and `Cc1nn(Cc2c(Cl)cccc2C(N)=O)c2cc(C(F)(F)c3nnn[nH]3)ccc12` [example 67, 3-chloro-2-{6-[difluoro(1H-tetrazol-5-yl)methyl]-3-methyl-1H-indazol-1-ylmethyl}benzamide] are within 1.5-fold of each other in IC50: 36 nM for the first, 46 nM for the second.

Going from `O=C(O)c1cnc2c(Cl)nn(Cc3c(Cl)cccc3C3CC3)c2c1` [Reference Example 3, 3-chloro-1-(2-chloro-6-cyclopropylbenzyl)-1H-pyrazolo[4,3-b]pyridine-6-carboxylic acid, reference compound] to `Cc1nn(Cc2c(Cl)cccc2C2CC2)c2cc(C(=O)O)cnc12` [Reference Example 2, 1-(2-chloro-6-cyclopropylbenzyl)-3-methyl-1H-pyrazolo[4,3-b]pyridine-6-carboxylic acid, reference compound], the IC50 rises from 32 nM to 53 nM (1.7-fold).

Compared with `Cc1nn(Cc2cccc(Cl)c2Cl)c2cc(C(F)(F)C(=O)O)ccc12` [example 14, [1-(2,3-dichlorobenzyl)-3-methyl-1H-indazol-6-yl]difluoroacetic acid], `Cc1nn(Cc2c(F)cccc2Cl)c2cc(C(F)(F)c3n[nH]c(=O)o3)ccc12` [Example 101, 5-{[1-(2-chloro-6-fluorobenzyl)-3-methyl-1H-indazol-6-yl]difluoromethyl}-1,3,4-oxadiazol-2(3H)-one] is 5.3-fold lower in IC50: 48 nM for the first, 9 nM for the second.

First: Cc1nn(Cc2c(Cl)cccc2C2CC2)c2cc(CCC(=O)O)ccc12 [Reference Example 8, 3-[1-(2-chloro-6-cyclopropylbenzyl)-3-methyl-1H-indazol-6-yl]propionic acid, reference compound]
Second: O=C(O)c1cnc2c(C(F)(F)F)nn(Cc3c(Cl)cccc3C3CC3)c2c1 [Reference Example 5, 1-(2-chloro-6-cyclopropylbenzyl)-3-trifluoromethyl-1H-pyrazolo[4,3-b]pyridine-6-carboxylic acid, reference compound]
The IC50 of the first is 1.8-fold higher: 24 nM for the first, 13 nM for the second.

For `CCc1nn(Cc2c(F)cccc2C2CC2)c2cc(C(F)(F)C(=O)O)cnc12` [Example 46, [1-(2-cyclopropyl-6-fluorobenzyl)-3-ethyl-1H-pyrazolo[4,3-b]pyridin-6-yl]difluoroacetic acid], the IC50 was 243 nM.
